Laboratory results taken from patent US9497966B2, “Pesticidal compositions and related methods” (DOW AGROSCIENCES LLC, priority 2013, dated 2016).

Experiments:
[1] = system: Green Peach Aphid (Myzus persicae) (GPA) (MYZUPE); experiment: Bioassay for Green Peach Aphid, foliar spray on infested cabbage seedlings; assay type: in vivo; details: 72 h, 200 ppm foliar spray on cabbage, graded after three days, Abbott-corrected % control, read-out: % Control (or Mortality) rating, GPA
Procedure: Example A: Bioassays for Green Peach Aphid (Myzus persicae) (GPA) (MYZUPE)
Cabbage seedlings grown in 3-inch pots, with 2-3 small (3-5 cm) true leaves, were used as test substrate. The seedlings were infested with 20-50 GPA (wingless adult and nymph stages) one day prior to chemical application. Four pots with individual seedlings were used for each treatment. Test compounds (2 mg) were dissolved in 2 mL of acetonemethanol (1:1) solvent, forming stock solutions of 1000 ppm test compound. The stock solutions were diluted 5× with 0.025% Tween 20 in H2O to obtain the solution at 200 ppm test compound. A hand-held aspirator-type sprayer was used for spraying a solution to both sides of […] leaves until runoff. Reference plants (solvent check) were sprayed with the diluent only containing 20% by volume of acetonemethanol (1:1) solvent. Treated plants were held in a holding room for three days at approximately 25° C. and ambient relative humidity (RH) prior to grading. Evaluation was conducted by counting the number of live aphids per plant under a microscope. Percent control was measured by using Abbott's correction formula (W. S. Abbott, “A Method of Computing the Effectiveness of an Insecticide,” J. Econ. Entomol. 18 (1925), pp. 265-267) as follows. Corrected % Control=100*(X−Y)/X • where • X=No. of live aphids on solvent check plants and • Y=No. of live aphids on treated plants The results are indicated in the table entitled “TABLE 2. Biological Data for Green Peach Aphid (MYZUPE) and Sweetpotato Whitefly-crawler (WF) (BEMITA)” (See Table Section).

[2] = system: Sweetpotato Whitefly-Crawler (Bemisia tabaci) (WF) (BEMITA); experiment: Insecticidal test for Sweetpotato Whitefly-Crawler in foliar spray assay on cotton plants; assay type: in vivo; details: 216 h, 200 ppm foliar spray on cotton, graded after 9 days, Abbott-corrected % control, read-out: % Control (or Mortality) rating, WF
Procedure: Example B: Insecticidal Test for Sweetpotato Whitefly-Crawler (Bemisia tabaci) (WF) (BEMITA) in Foliar Spray Assay
Cotton plants (Gossypium hirsutum) grown in 3-inch pots, with 1 small (4-5 cm) true leaves, were used as test substrate. The plants were infested with 200-400 whitefly eggs 4-5 days prior to chemical application. Four pots with individual plants were used for each treatment. Test compounds (2 mg) were dissolved in 1 mL of acetone solvent, forming stock solutions of 2000 ppm test compound. The stock solutions were diluted 10× with 0.025% Tween 20 in H2O (diluents) to obtain the solution at 200 ppm test compound. A hand-held aspirator-type sprayer was used for spraying a solution to both sides of cotton leaves until runoff. Reference plants (solvent check) were sprayed with the diluent only containing 10% by volume of acetone solvent. Treated plants were held in a holding room for 9 days at approximately 25° C. and ambient relative humidity (RH) prior to grading. Evaluation was conducted by counting the number of live 3-4 nymph stage per plant under a microscope. Percent control was measured by using Abbott's correction formula (W. S. Abbott, “A Method of Computing the Effectiveness of an Insecticide,” J. Econ. Entomol. 18 (1925), pp. 265-267) as follows. Corrected % Control=100*(X−Y)/X • where • X=No. of live nymphs on solvent check plants and • Y=No. of live nymphs on treated plants.
Biological Data for Green Peach Aphid (MYZUPE) and Sweetpotato Whitefly-crawler (WF) (BEMITA)” (See Table Section).

Row | melting point | SMILES | mortality at 200 ppm [1] | mortality at 200 ppm [2]
1 | – | CON=C(CSCCC(F)(F)F)C(=O)N(C)c1cn(-c2cccnc2)nc1Cl [Compound P4, N-(3-chloro-1-(pyridin-3-yl)-1H-pyrazol-4-yl)-2-(methoxyimino)-N-methyl-3-((3,3,3-trifluoropropyl)thio)propanamide] | 80 to 100% | 80 to 100%
2 | – | CON=C(C[S+]([O-])CCC(F)(F)F)C(=O)N(C)c1cn(-c2cccnc2)nc1Cl (stereo not shown) [Compound P5, N-(3-chloro-1-(pyridin-3-yl)-1H-pyrazol-4-yl)-2-(methoxyimino)-N-methyl-3-((3,3,3-trifluoropropyl)sulfinyl)propanamide] | 80 to 100% | 80 to 100%
3 | – | CON=C(CS(=O)(=O)CCC(F)(F)F)C(=O)N(C)c1cn(-c2cccnc2)nc1Cl [Compound P47, N-(3-chloro-1-(pyridin-3-yl)-1H-pyrazol-4-yl)-2-(methoxyimino)-N-methyl-3-((3,3,3-trifluoropropyl)sulfonyl)propanamide] | 80 to 100% | 80 to 100%
4 | 116 to 121 °C | CON=C(CS)C(=O)N(C)c1cn(-c2cccnc2)nc1Cl [FA2, N-(3-chloro-1-(pyridin-3-yl)-1H-pyrazol-4-yl)-3-mercapto-2-(methoxyimino)-N-methylpropanamide] | – | –
